# Legend:
# [1] = test system: mouse adrenal chromaffin cells; assay: Perforated patch clamp action potential recording; type: cell-based
# Procedure: Action potentials in chromaffin cells were monitored using perforated patch clamp electrophysiology in current-clamp mode, using an EPC10 amplifier and Pulsemaster data acquisition software (HEKA electronics). A coverslip containing mouse chromaffin cells was transferred to a recording chamber and perfused with extracellular solution. Extracellular solution consists of 140 mM NaCl, 2.8 mM KCl, 10 mM HEPES, 1 mM MgCl2, 2 mM CaCl2, 10 mM glucose, pH adjusted to 7.3, and osmolarity adjusted to 290-300 mOsm. Intracellular solution consisted of 145 mM KCl, 10 mM NaCl, 1 mM MgCl2, and 10 mM HEPES, pH adjusted to 7.3 and osmolarity adjusted to 290-300 mOsm. Perforation solution was prepared by adding 4.5 μl of 125 mg/ml stock of amphoterecin B (Sigma) in DMSO to 1.8 mls of intracellular solution, and homogenizing for 5-10 s. Perforation was achieved within 3-10 min following gigaseal formation. Series resistances were in the range of 8-22 Mohm. Light stimulation in the blue spectrum originated from a xenon lamp source with an irradiance value of 0.480 mE s^−1 m^−2 through a 470/40 nm bandpass excitation filter. The duration of illumination varied and is indicated by bars on figures.
# The behavior of excitable cells (cells capable of firing action potentials) treated with RubpyC17 was next investigated. Perforated patch clamp recording was performed on mouse adrenal chromaffin cells pretreated with 450-900 nM RubpyC17 for 15-30 minutes before beginning electrophysiological recordings. […] A slow, gradual reversal, on the order of seconds after light illumination was terminated (FIG. 3A), was observed.
# [2] = test system: cell lines and primary cells; assay: Cell health / tolerance on RubpyC17 exposure (stable gigaseal, viability); type: cell-based
# Procedure: However, in several embodiments, other organic ligands coupled to other transition metals are also used, with reduced and/or non-existent adverse side effects. […] Excessive and prolonged whole cell incubation with RubpyC17 (e.g., >10 μM for >5 min) may result in cell toxicity, since a stable gigaseal cannot be stably maintained in those cells. At this time, the mechanism behind the adverse effects on cell health upon RubpyC17 overexposure is not yet fully known. Since perforation was not achieved when a small patch of membrane was exposed to a high dose of RupbyC17, it was hypothesized that when an entire cell is overexposed to RubpyC17, there may be sufficient random interactions between excess RubpyC17 complex and endogenous surface molecules (i.e., proteins, carbohydrates, sugars), triggering signals that lead to cell health deterioration. However, when used in its appropriate dose range (e.g., <about 10 μM for cell lines and <about 2 μM for primary cells, according to one embodiment), RubpyC17 is tolerated by cells and consistently confers light sensitivity.
substance,measurement,setting,value
[Ru(bpy)2(bpy-C17)](PF6)2 [RubpyC17],effect of light on action potential firing,"[1]; 900 nM RubpyC17 pretreatment, 5 mM ascorbate",triggered action potentials or increased the rate of action potential firing
same,"action potential firing rate, single cell, ascorbate changed for ferricyanide",[1]; 2 μM RubpyC17 for 1.5 min,light-induced increase and then light-induced decrease
same,effect of light on action potential firing,[1]; 100 μM ferricyanide,decreased the rate of action potential firing
same,action potential waveform shape,[1]; before vs during light illumination,no change in the shape of action potential waveforms
same,effect of light on action potential firing,[1]; ferricyanide increased from 100 to 200 μM,further suppressed action potential firing
same,tolerated dose range,[2]; cell lines,< 10 µM
same,whole cell incubation concentration that may result in cell toxicity,"[2]; for >5 min, stable gigaseal not maintained",> 10 µM
same,viability of chromaffin cells,[2]; incubations of ˜30 min,continued viability
same,tolerated dose range,[2]; primary cells,< 2 µM
